Experimental findings from patent US8765779B2, “Tricyclic derivatives and their pharmaceutical use and compositions” (Cephalon, Inc., priority 2009, dated 2014) are described below.

Each structure is given as a SMILES string. Counter-ions that a name gives are not always drawn.

For one data set, the target named is T1, human 5-HT6 receptor (Homo sapiens, UniProt P50406).
T1 construct: host or cells: CHO-K1 cells, stably transfected; membranes prepared in house
Description: Human 5-HT6 Receptor Binding Assay ([3H]LSD displacement, scintillation beads). The settings on record: membranes of CHO-K1 cells with recombinant human 5-HT6, 4 nM [3H]LSD; Table 1, class symbols; read-out: h5-HT6 (Ki).

For orientation: melting point means the temperature, or range, at which the solid turns liquid. One may read the Ki as the equilibrium dissociation constant of an inhibitor or competing ligand from its target.

T1 sequence (P50406 whole entry): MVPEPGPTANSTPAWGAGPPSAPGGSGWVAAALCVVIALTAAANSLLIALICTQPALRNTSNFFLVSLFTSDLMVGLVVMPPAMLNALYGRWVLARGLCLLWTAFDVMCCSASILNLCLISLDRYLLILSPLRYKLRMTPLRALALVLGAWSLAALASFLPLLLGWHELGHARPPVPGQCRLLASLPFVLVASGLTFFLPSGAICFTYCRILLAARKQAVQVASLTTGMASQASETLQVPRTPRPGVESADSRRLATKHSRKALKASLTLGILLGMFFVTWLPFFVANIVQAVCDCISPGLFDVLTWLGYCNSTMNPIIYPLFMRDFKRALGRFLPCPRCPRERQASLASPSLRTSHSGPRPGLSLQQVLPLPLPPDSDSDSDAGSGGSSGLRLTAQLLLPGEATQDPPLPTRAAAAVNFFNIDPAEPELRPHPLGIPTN

For the compound `CNC(=O)c1c(F)cccc1S(=O)(=O)c1ccc2c(c1)OC1CNCCC21` (stereo not drawn) (as salt: HCl) [Example 477], the melting point is above 200 °C. In turn, `Cn1cnc(COc2cccc(S(=O)(=O)c3ccc4c(c3)OC3CNCCC43)c2)n1` (stereo not drawn) (as salt: HCl) [Example 560] yielded a melting point of 187 to 190 °C. Turning to `O=C(COc1cccc(S(=O)(=O)c2ccc3c(c2)OC2CNCCC32)c1)N1CCCC1` (stereo not drawn) (as salt: HCl) [Example 564], the melting point was 195 to 196 °C. The same measure, in the same setting: the figure for `O=S(=O)(c1cccc(OCC2CC2)c1)c1ccc2c(c1)OC1CNCCC21` (stereo not drawn) (as salt: HCl) [Example 555] is 208 to 210 °C; for `O=S(=O)(c1cccc(OCC2CCOCC2)c1)c1ccc2c(c1)OC1CNCCC21` (stereo not drawn) (as salt: HCl) [Example 581, 7-{[3-(tetrahydro-2H-pyran-4-ylmethoxy)phenyl]sulfonyl}-1,2,3,4,4a,9a-hexahydro[1]benzofuro[2,3-c]pyridine] it is 186 to 188 °C. Still for that read-out and setting: for `COc1cc(OC)cc(S(=O)(=O)c2ccc3c(c2)OC2CNCCC32)c1` (stereo not drawn) (as salt: HCl) [Example 480] the value was 248 to 251 °C; for `O=S(=O)(c1cccc(OCc2cnccn2)c1)c1ccc2c(c1)OC1CNCCC21` (stereo not drawn) (as salt: HCl) [Example 567], 244 to 245 °C; for `O=S(=O)(c1cccc(OCC2CCOCC2)c1)c1ccc2c(c1)OC1CNCCC21` (single isomer, unassigned) (as salt: HCl) [Example 548, 7-{[3-(Tetrahydro-2H-pyran-4-ylmethoxy)phenyl]sulfonyl}-1,2,3,4,4a,9a-hexahydro[1]benzofuro[2,3-c]pyridine], 187 to 189 °C. On the same count and under the same terms, the figure for `CCOCC1NCCc2c1oc1cc(S(=O)(=O)c3cccc(F)c3)ccc21` (racemic) (as salt: HCl) [Example 33, 1-(ethoxymethyl)-7-[(3-fluorophenyl)sulfonyl]-1,2,3,4-tetrahydro[1]benzofuro[2,3-c]pyridine] is 230 to 250 °C (dec.); for `CC(C)Oc1cccc(S(=O)(=O)c2ccc3c(c2)OC2CNCCC32)c1F` (stereo not drawn) (as salt: HCl) [Example 483] it is 221 to 224 °C; for `O=S(=O)(c1cc(F)cc(OCc2ccccc2)c1)c1ccc2c(c1)OC1CNCCC21` (stereo not drawn) (as salt: HCl) [Example 484] it is 171 to 172 °C.

The compound `CC12CCNCC1Oc1cc(S(=O)(=O)c3ccccn3)ccc12` (racemic) (as salt: HCl) [Example 8, 4a-methyl-7-(pyridin-2-ylsulfonyl)-1,2,3,4,4a,9a-hexahydro[1]benzofuro[2,3-c]pyridine] had a melting point of 282 to 283 °C. For `O=S(=O)(c1ccc2c(c1)OC1CNCCC21)c1cccc(OCC2CCOCC2)c1F` (stereo not drawn) (as salt: HCl) [Example 482], the melting point is 175 to 177 °C. In turn, `CN(C)C(=O)c1c(F)cccc1S(=O)(=O)c1ccc2c(c1)OC1CNCCC21` (stereo not drawn) (as salt: HCl) [Example 476] had a melting point of 283 to 286 °C. Compound `O=S(=O)(c1cccc(OCC2CCOCC2)c1)c1ccc2c(c1)OC1CNCCC21` (stereo not drawn) (as salt: HCl) [Example 570, 7-{[3-(tetrahydro-2H-pyran-4-ylmethoxy)phenyl]sulfonyl}-1,2,3,4,4a,9a-hexahydro[1]benzofuro[2,3-c]pyridine] gave a melting point of 188 to 190 °C. Compound `O=S(=O)(c1cccc(OCCn2cccc2)c1)c1ccc2c(c1)OC1CNCCC21` (stereo not drawn) (as salt: HCl) [Example 573] showed a melting point of 233 to 234 °C. `CC(C)CC1(C)NCCc2c1oc1cc(S(=O)(=O)c3cccc(F)c3)ccc21` (racemic) (as salt: HCl) [Example 36, 7-[(3-fluorophenyl)sulfonyl]-1-methyl-1-(2-methylpropyl)-1,2,3,4-tetrahydro[1]benzofuro[2,3-c]pyridine] yielded a melting point of 284 to 286 °C.

The compound `CC12CCNCC1Oc1cc(S(=O)(=O)c3ncccn3)ccc12` (racemic) (as salt: HCl) [Example 9, 4a-methyl-7-(pyrimidin-2-ylsulfonyl)-1,2,3,4,4a,9a-hexahydro[1]benzofuro[2,3-c]pyridine] gave a melting point of 232 to 234 °C. For the compound `CC(=O)NCC1(C)NCCc2c1oc1cc(S(=O)(=O)c3cccc(F)c3)ccc21` (stereo not drawn) (as salt: HCl) [Example 631, N-({7-[(3-fluorophenyl)sulfonyl]-1-methyl-1,2,3,4-tetrahydro[1]benzofuro[2,3-c]pyridin-1-yl}methyl)acetamide], the melting point was 217 to 227 °C. For `O=S(=O)(c1cccc(OCc2ccccn2)c1)c1ccc2c(c1)OC1CNCCC21` (stereo not drawn) (as salt: HCl) [Example 562], the melting point was in the range of 179 to 182 °C. On to `CC1(C)NCCc2c1oc1ccc(S(=O)(=O)c3cccc(F)c3)cc21` (as salt: HCl) [Example 42, 6-[(3-fluorophenyl)sulfonyl]-1,1-dimethyl-1,2,3,4-tetrahydro[1]benzofuro[2,3-c]pyridine], for which the melting point was above 200 °C. Still for that read-out and setting: for `COCC1(COC)NCCc2c1oc1cc(S(=O)(=O)c3cccc(F)c3)ccc21` (as salt: HCl) [Example 39, 7-[(3-fluorophenyl)sulfonyl]-1,1-bis(methoxymethyl)-1,2,3,4-tetrahydro[1]benzofuro[2,3-c]pyridine] the value was 196 to 198 °C; for `CN(C)C(=O)c1c(F)cccc1S(=O)(=O)c1ccc2c3c(oc2c1)CNCC3` (as salt: HCl) [Example 479], 245 to 248 °C. `CCCCCOc1cccc(S(=O)(=O)c2ccc3c(c2)OC2CNCCC32)c1` (stereo not drawn) (as salt: HCl) [Example 557] showed a melting point of 199 to 201 °C. `CCCCOc1cccc(S(=O)(=O)c2ccc3c(c2)OC2CNCCC32)c1` (stereo not drawn) (as salt: HCl) [Example 554] yielded a melting point of 206 to 208 °C.

Regarding `COC(=O)CCCCOc1cccc(S(=O)(=O)c2ccc3c(c2)OC2CNCCC32)c1` (stereo not drawn) (as salt: HCl) [Example 556], the melting point lay in the range of 179 to 181 °C. For the compound `CN(C)C(=O)CC1(C)NCCc2c1oc1cc(S(=O)(=O)c3cccc(F)c3)ccc21` (racemic) (as salt: HCl) [Example 40, 2-{7-[(3-fluorophenyl)sulfonyl]-1-methyl-1,2,3,4-tetrahydro[1]benzofuro[2,3-c]pyridin-1-yl}-N,N-dimethylacetamide], the melting point was 220 to 223 °C. For the compound `CNC(=O)c1cccc(S(=O)(=O)c2ccc3c4c(oc3c2)CNCC4)c1` (as salt: HCl) [Example 478], the melting point is above 290 °C. `O=S(=O)(c1ccc2c(c1)OC1CNCCC21)c1cccc(OCC2CCOCC2)c1Cl` (stereo not drawn) (as salt: HCl) [Example 485]: the melting point is 185 to 187 °C. On the same count and under the same terms, for `O=S(=O)(c1cccc(OCc2cccnc2)c1)c1ccc2c(c1)OC1CNCCC21` (stereo not drawn) (as salt: HCl) [Example 559] the value was 167 to 171 °C.

For `O=S(=O)(Cc1ccccc1)Oc1ccc2c(c1)C1CCNCC1O2` (stereo not drawn) [Example 697, 1,2,3,4,4a,9a-hexahydro[1]benzofuro[2,3-c]pyridin-6-yl phenylmethanesulfonate], at human 5-HT6 receptor, the inhibition constant Ki is above 1000 nM. In the case of `CC12CCNCC1Oc1ccc(OS(=O)(=O)c3csc4ccccc34)cc12` (stereo not drawn) [Example 771], the inhibition constant (Ki) on human 5-HT6 receptor is below 500 nM.

As for `CC(C)c1ccc(S(=O)(=O)c2ccc3oc4c(c3c2)CCNC4)cc1` [Example 259], at human 5-HT6 receptor, the inhibition constant Ki is below 500 nM. For the compound `CC(C)(C)c1ccc(S(=O)(=O)Oc2ccc3c(c2)OC2CNCCC32)cc1` (stereo not drawn) [Example 666], the Ki on human 5-HT6 receptor was below 500 nM.

As to `CC1(C2CC2)NCCc2c1oc1cc(S(=O)(=O)c3cccc(F)c3)ccc21` (racemic) [Example 29, 1-cyclopropyl-7-[(3-fluorophenyl)sulfonyl]-1-methyl-1,2,3,4-tetrahydro[1]benzofuro[2,3-c]pyridine], on human 5-HT6 receptor, the Ki was below 500 nM. The same measure, in the same setting: the figure for `CC1(C)CNCc2oc3cc(S(=O)(=O)c4cc(F)cc(F)c4)ccc3c21` [Example 287] is below 500 nM; for `O=S(=O)(c1cccc(OCC2CCOCC2)c1)c1ccc2c(c1)OC1CNCCC21` (stereo not drawn) [Example 570, 7-{[3-(tetrahydro-2H-pyran-4-ylmethoxy)phenyl]sulfonyl}-1,2,3,4,4a,9a-hexahydro[1]benzofuro[2,3-c]pyridine] it is below 500 nM.

Regarding `O=S(=O)(c1cccc(C(F)(F)F)c1)c1ccc2c3c(oc2c1)C1(CCOC1)NCC3` (stereo not drawn) [Example 304], the inhibition constant (Ki) at human 5-HT6 receptor is below 500 nM. On to `O=S(=O)(Nc1ccc(F)cc1)c1ccc2c(c1)C1CCNCC1O2` (stereo not drawn) [Example 847], for which the Ki on human 5-HT6 receptor was above 1000 nM. For the compound `CN(C)C(=O)c1c(F)cccc1S(=O)(=O)c1ccc2c(c1)OC1CNCCC21` (stereo not drawn) [Example 476], the inhibitory constant (Ki) at human 5-HT6 receptor was above 1000 nM. Take `O=S(=O)(Oc1ccc2c(c1)OC1CN(Cc3ccccc3)CCC21)c1ccc(Cl)cc1` (stereo not drawn) [Example 803]: the inhibitory constant (Ki) on human 5-HT6 receptor is above 1000 nM. With `O=S(=O)(c1cc(Cl)cc(Cl)c1)c1ccc2c(c1)OC1CNCCC21` (stereo not drawn) [Example 155], the Ki at human 5-HT6 receptor was below 500 nM. With `CC(C)Oc1cccc(S(=O)(=O)c2ccc3c(c2)OC2C3CCNC23CCC3)c1` (stereo not drawn) [Example 622, 7-{[3-(Propan-2-yloxy)phenyl]sulfonyl}-3,4,4a,9a-tetrahydro-2H-spiro[1-benzofuro[2,3-c]pyridine-1,1′-cyclobutane]hydrochloride], on human 5-HT6 receptor, the Ki is below 500 nM.

`[O-][S+](c1ccc2c(c1)OC1CNCCC21)c1cc(Cl)ccc1Cl` (stereo not drawn) [Example 135]: the Ki at human 5-HT6 receptor is above 1000 nM. On to `O=S(=O)(c1ccc2c(c1)OCCO2)c1ccc2c3c(oc2c1)CNCC3` [Example 200], for which the Ki on human 5-HT6 receptor is below 500 nM. Consider `Cc1c(S(=O)(=O)Oc2ccc3c(c2)OC2CNCCC32)sc2ccc(Cl)cc12` (stereo not drawn) [Example 797], for which, at human 5-HT6 receptor, the inhibition constant (Ki) is below 500 nM. Take `O=S(=O)(Oc1ccc2c(c1)OC1CNCCC21)c1ccc(Cl)cc1` (stereo not drawn) [Example 635, 1,2,3,4,4a,9a-Hexahydro[1]benzofuro[2,3-c]pyridin-7-yl 4-chlorobenzenesulfonate]: the inhibitory constant (Ki) at human 5-HT6 receptor is below 500 nM. `O=S(=O)(c1ccc2c3c(oc2c1)CNCC3)c1cccc2c1OCCO2` [Example 467]: at human 5-HT6 receptor, the Ki was below 500 nM.
